From PubChem BioAssay (NCI) come the findings set out here.

What all share (assay): NCI anticancer screen, dose series, 48 h
In experiment [1] the test system is OVCAR-8 ovarian.
Experiment [2] deals with M14 melanoma.
The test system of experiment [3] is 786-0 renal.
Experiment [4] concerns SW-620 colon.
For experiment [5], the system named is CAKI-1 renal.
Experiment [6] concerns HCT-116 colon.
Experiment [7] relates to EKVX NSCLC.
The test system of experiment [8] is TK-10 renal.
Experiment [9] relates to HT29 colon.
In experiment [10] the test system is OVCAR-5 ovarian.

SMILES strings stand for the structures. Values joined by “and” are separate entries in the source; they are usually repeats but may differ in a detail not shown here. Identical values can stand only once.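 These data come from cells grown in 96-well plates and exposed to compound for 48 hours at five concentrations. Here, GI50 denotes the concentration required for 50% inhibition of growth. TGI is the concentration that stops growth completely.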 Bounds are passed on as bounds.

As for `C#Cc1cccc(Nc2ncnc3cc(OC)c(OCCCCCCC(=O)NO)cc23)c1`, the GI50 in experiment [1] was 0.117 µM; in [2], 0.21 µM; in experiment [3], 0.448 µM; in [4], 0.058 µM; in [5] it was 0.261 µM; in [6] it was 0.0791 µM. Also, the GI50 was 0.154 µM in experiment [7], 0.185 µM in experiment [8], 0.253 µM in experiment [9] and 0.121 µM in experiment [10]. Also, the TGI in [1] was found to be 4.43 µM; in [2], 1.99 µM; in experiment [3], 4.68 µM; in experiment [4], 0.319 µM; in experiment [5], 3.04 µM; in [6], 3.33 µM. Moreover, the TGI in experiment [7] was 6.34 µM; in [8], 2.36 µM; in [9] it was 5.33 µM; in experiment [10], 3 µM.
Regarding `CC(SC(C)C(=O)N/N=C/c1cccc(Cl)c1)C(=O)N/N=C\c1cccc(Cl)c1` (centres undefined), the GI50 in experiment [1] was 4.78 µM; in experiment [2] it was 14.1 µM; in experiment [3], 14.5 µM; in experiment [4], 2.6 µM; in experiment [5], 61.4 µM; in experiment [6], 2.65 µM. The GI50 in [7] was 13.3 µM; in experiment [8] it was 4.66 µM; in experiment [9], 11.6 µM; in experiment [10], 17.4 µM. In addition, the TGI was 23.2 µM in experiment [1]; 35.5 µM in [2]; 35.5 µM in [3]; 6.65 µM in [4]; over 100 µM in experiment [5]; 7.94 µM in experiment [6]. In addition, the TGI in experiment [7] worked out at 59.7 µM; in [8], 18.1 µM; in experiment [9] it was 32.1 µM; in [10] it was 44.2 µM.
Take `S=C(N/N=C/c1ccco1)NC12CC3CC(CC(C3)C1)C2`: the TGI in [1], in experiment [2], in experiment [3], in [4], in experiment [5] and in experiment [6] was over 100 µM each time. In addition, the TGI in experiment [7], in [8], in experiment [9] and in [10] was over 100 µM throughout.
Consider `CC1OC(n2cc(F)c(=O)[nH]c2=O)C=CC1O` (centres undefined), for which the TGI in [1] is over 100 µM; in experiment [2], over 100 µM; in [3], over 100 µM; in experiment [4] it was over 71.6 µM; in experiment [5], over 100 µM; in experiment [6], over 100 µM. For the same compound, the TGI in experiment [7], in experiment [8], in experiment [9] and in [10] was over 100 µM in each case.
Consider `COc1ccc(OC)c(NC(=O)C(=O)NNC(=O)c2sc(NNC(C)=O)nc2C)c1`, for which the TGI in experiment [1] was over 100 µM; in experiment [2] it was over 100 µM; in experiment [3] it was over 100 µM; in experiment [4], 46.6 µM; in [5], over 100 µM; in [6], over 100 µM. Also, the TGI in experiment [7], in experiment [8], in [9] and in [10] was over 100 µM each time.
For `Cc1ccc(C(SCC(N)C(=O)O)(c2ccccc2)c2ccc(C)cc2)cc1` (centres undefined), the GI50 in experiment [1] is 0.433 µM; in [2], 0.0316 µM; in [3], 2.21 µM; in experiment [4], 0.153 µM; in experiment [5], 0.402 µM; in experiment [6] it was 0.0449 µM. The GI50 in experiment [7] is 0.357 µM; in experiment [8], 11.2 µM; in experiment [9] it was 0.334 µM; in experiment [10] it was 1.11 µM. For the same compound, the TGI was determined as 44.2 µM in [1]; 0.147 µM in [2]; 24.4 µM in experiment [3]; 14.8 µM in experiment [4]; 20.1 µM in experiment [5]; 7.06 µM in experiment [6]. Besides, the TGI was over 46.8 µM in experiment [7], 30.9 µM in [8], 3.38 µM in [9] and 24.4 µM in experiment [10].
Turning to `Clc1coc2nc3ccccc3c(Nc3ccc4c(c3)OCO4)c12`, the GI50 in experiment [1] was 2.33 µM; in [2], 0.699 µM; in experiment [3] it was 2.73 µM; in [4], 3.22 µM; in experiment [5] it was 1.51 µM; in experiment [6] it was 0.443 µM. The GI50 in experiment [7] was 5.35 µM; in experiment [8], 2.59 µM; in [9] it was 0.601 µM; in experiment [10], 6.99 µM. The TGI in [1] was 21.2 µM; in experiment [2], 13.8 µM; in [3], over 42.6 µM; in experiment [4], 12.1 µM; in experiment [5], 10.6 µM; in experiment [6], 11.8 µM. Besides, the TGI in experiment [7] was 30.4 µM; in experiment [8] it was 17.4 µM; in experiment [9] it was over 100 µM; in [10], over 100 µM.
Turning to `O=c1n(CC2CO2)c(=O)n(CC2CO2)c(=O)n1CC1CO1` (centres undefined), the GI50 was 25.3 µM and 12.9 µM in experiment [1]; 13.2 µM and 6.77 µM in [2]; 8.38 µM and 4.15 µM in experiment [3]; 26.3 µM and 13.2 µM in experiment [4]; 0.81 µM in experiment [5]; 12.3 µM and 10.2 µM in [6]. For the same compound, the GI50 is 21.1 µM in experiment [8]; 24.4 µM in experiment [9]; 18.2 µM and 19.9 µM in experiment [10]. The TGI in experiment [1] is 148 µM and > 100 µM; in experiment [2] it was 57.3 µM and > 100 µM; in experiment [3], 24.2 µM and 84.8 µM and > 100 µM; in [4], 228 µM and > 100 µM; in experiment [5] it was 52.1 µM and 64.9 µM; in experiment [6], 43.9 µM and 88.6 µM and > 100 µM. Moreover, the TGI is 175 µM in experiment [7]; 121 µM and > 100 µM in experiment [8]; 62.3 µM and > 100 µM in [9]; 56 µM and 118 µM and 40.1 µM in experiment [10].
For the compound `CNCCNc1c2c(c(NCCNC)c3c(CN(C)C)c[nH]c13)C(=O)c1ccccc1C2=O`, the GI50 was 3.28 µM in [1]; 5.58 µM in experiment [2]; 4.87 µM in experiment [3]; 1.31 µM in experiment [4]; 4.71 µM in [5]; 1.55 µM in experiment [6]. For the same compound, the GI50 in experiment [7] was 2.13 µM; in [8], 7.11 µM; in [9], 3.41 µM; in experiment [10], 2.95 µM. The TGI was determined as 13.6 µM in experiment [1]; 15.5 µM in [2]; 19.5 µM in experiment [3]; 11 µM in experiment [4]; 16.8 µM in experiment [5]; 8.29 µM in experiment [6]. Moreover, the TGI in [7] worked out at 5 µM; in experiment [8] it was 15.9 µM; in experiment [9], 31.6 µM; in experiment [10], 13.9 µM.
